# Source: patent EP0929545B1, “TRICYCLIC INHIBITORS OF FARNESYL PROTEIN TRANSFERASE” (SCHERING CORPORATION, priority 1996, dated 1998)
# Like-named read-outs stand apart in the source and are kept apart here.
# Assays:
# [1] = target: farnesyl protein transferase (Homo sapiens, UniProt P49354+P49356); experiment: FPT IC50, inhibition of farnesyl protein transferase, in vitro enzyme assay; assay type: biochemical; conditions: range stated jointly for the listed compounds
# Procedure: (§1) FPT IC50 (inhibition of farnesyl protein transferase, in vitro enzyme assay) and COS Cell IC50 (Cell-Based Assay) were determined following the assay procedures described in WO 95/10516, published April 20, 1995. GGPT IC50 (inhibition of geranylgeranyl protein transferase, in vitro enzyme assay), Cell Mat Assay, and anti-tumor activity (in vivo anti-tumor studies) could be determined by the assay procedures described in WO 95/ 10516. The disclosure of WO 95/ 10516 is incorporated herein by reference thereto.
# COS Cell = COS Cell IC50 (Cell-Based Assay); conditions: range stated jointly for the listed compounds
# Procedure: as §1
# Human tumor cells = experiment: Soft Agar Assay (anchorage-independent growth); assay type: cell-based; conditions: range stated jointly for the listed compounds, upper end printed as >500
# Procedure: Anchorage-independent growth is a characteristic of tumorigenic cell lines. Human tumor cells are suspended in growth medium containing 0.3% agarose and an indicated concentration of a farnesyl transferase inhibitor. The solution is overlayed onto growth medium solidified with 0.6% agarose containing the same concentration of farnesyl transferase inhibitor as the top layer. After the top layer is solidified, plates are incubated for 10-16 days at 37°C under 5% CO2 to allow colony outgrowth. After incubation, the colonies are stained by overlaying the agar with a solution of MTT (3-[4,5-dimethylthiazol-2-yl]-2,5-diphenyltetrazolium bromide, Thiazolyl blue) (1 mg/mL in PBS). Colonies can be counted and the IC50's can be determined.
# [2] = H-ras, read-out: FPT IC50 (H-ras)
# [3] = K-ras, read-out: FPT IC50 (K-ras)
SMILES,"IC50 [1, 3]","IC50 [1, 2]",IC50 (COS Cell),IC50 (Human tumor cells)
O=C(CC1CCN(c2ncccn2)CC1)N1CCC([C@H]2c3ncc(Br)cc3CCc3cc(Cl)cc(Br)c32)CC1 [Compound 6.0],,0.0046 to 0.14 µM,0.035 to 0.12 µM,
O=C(CC1CCN(c2nccs2)CC1)N1CCC([C@H]2c3ncc(Br)cc3CCc3cc(Cl)cc(Br)c32)CC1 [Compound 3.0],,0.0046 to 0.14 µM,,
"CC(=O)OC[C@H]1O[C@@H](N2CCC(CC(=O)N3CCC([C@H]4c5ncc(Br)cc5CCc5cc(Cl)cc(Br)c54)CC3)CC2)[C@H](OC(C)=O)[C@@H](OC(C)=O)[C@@H]1OC(C)=O [Compound 9.3, (+) -4-(3,10-dibromo-8-chloro-6,11-dihydro-5H-benzo[5,6]cyclohepta[1,2-b]pyridin-11-yl)-1-[[1-[2,3,4,6-tetra-O-acetyl-1-beta-D-glucopyranosyl]-4-piperidinyl]acetyl]piperidine]",0.029 to 0.091 µM,0.0046 to 0.14 µM,0.035 to 0.12 µM,≥ 0.08 µM
O=C(CC1CCN(c2nnnn2-c2ccccc2)CC1)N1CCC([C@H]2c3ncc(Br)cc3CCc3cc(Cl)cc(Br)c32)CC1 [Compound 2.0],,0.0046 to 0.14 µM,,

# The next lines start with results.
"IC50 [1, 3]",SMILES,"IC50 [1, 2]",IC50 (COS Cell),IC50 (Human tumor cells)
0.029 to 0.091 µM,O=C(CC1CCN(c2nc3ccccc3o2)CC1)N1CCC([C@H]2c3ncc(Br)cc3CCc3cc(Cl)cc(Br)c32)CC1 [Compound 4.0],0.0046 to 0.14 µM,0.035 to 0.12 µM,
0.029 to 0.091 µM,O=C(CC1CCN(c2ccccn2)CC1)N1CCC([C@H]2c3ncc(Br)cc3CCc3cc(Cl)cc(Br)c32)CC1 [Compound 5.0],0.0046 to 0.14 µM,0.035 to 0.12 µM,≥ 0.08 µM
